Read-outs that look alike come from different tables or passages of the source.
Experiments:
human orexin-1 receptor = biological target: T1, human orexin-1 receptor (Homo sapiens, UniProt O43613); test: FLIPR calcium assay of orexin receptor antagonistic activity, CHO cells expressing human orexin-1 receptor; format: cell-based; settings: 3 nM orexin-A as agonist; not normalized; *2/*3 = geometric mean of n = 2/3 values; read-out: OX1 IC50
T1 construct: expressed in transfected cells; host or cells: Chinese hamster ovary (CHO) cells
T1 sequence (O43613 1-425): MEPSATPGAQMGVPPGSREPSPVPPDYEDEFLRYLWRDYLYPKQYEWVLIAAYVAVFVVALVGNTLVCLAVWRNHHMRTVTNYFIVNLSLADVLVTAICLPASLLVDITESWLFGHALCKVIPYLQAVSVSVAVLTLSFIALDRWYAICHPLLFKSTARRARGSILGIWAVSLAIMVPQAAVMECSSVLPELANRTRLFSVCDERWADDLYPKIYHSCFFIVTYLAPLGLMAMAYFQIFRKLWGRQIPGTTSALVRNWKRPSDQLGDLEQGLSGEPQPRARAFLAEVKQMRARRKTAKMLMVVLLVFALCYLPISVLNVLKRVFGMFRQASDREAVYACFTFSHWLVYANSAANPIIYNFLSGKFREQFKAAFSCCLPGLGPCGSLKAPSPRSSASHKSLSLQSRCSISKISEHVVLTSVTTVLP
Procedure: (§1) The orexin receptor antagonistic activity of the compounds of formula (I) is determined in accordance with the following experimental method.
(§2) Chinese hamster ovary (CHO) cells expressing the human orexin-1 receptor and the human orexin-2 receptor, respectively, are grown in culture medium (Ham F-12 with L-Glutamine) containing 300 μg/ml G418, […] penicillin, 100 μg/ml streptomycin and 10% heat inactivated fetal calf serum (FCS). The cells are seeded at 20′000 cells/well into 384-well black clear bottom sterile plates (Greiner). The seeded plates are incubated overnight at 37° C. in 5% CO2.
(§3) Human orexin-A as an agonist is prepared as 1 mM stock solution in MeOH:water (1:1), diluted in HBSS containing 0.1% bovine serum albumin (BSA), NaHCO3: 0.375 g/l and 20 mM HEPES for use in the assay at a final concentration of 3 nM.
(§4) Antagonists are prepared as 10 mM stock solution in DMSO, then diluted in 384-well plates using DMSO followed by a transfer of the dilutions into in HBSS containing 0.1% bovine serum albumin (BSA), NaHCO3: 0.375 g/l and 20 mM HEPES. On the day of the assay, 50 μl of staining buffer (HBSS containing 1% FCS, 20 mM HEPES, NaHCO3: 0.375 g/l, 5 mM probenecid (Sigma) and 3 μM of the fluorescent calcium indicator fluo-4 AM (1 mM stock solution in DMSO, containing 10% pluronic) is added to each well. The 384-well cell-plates are incubated for 50 min at 37° C. in 5% CO2 followed by equilibration at rt for 30-120 min before measurement.
(§5) Within the Fluorescent Imaging Plate Reader (FLIPR Tetra, Molecular Devices), antagonists are added to the plate in a volume of 10 μl/well, incubated for 10 min and finally […] of agonist is added. Fluorescence is measured for each well at 1 second intervals, and the height of each fluorescence peak is compared to the height of the fluorescence peak induced by 3 nM orexin-A with vehicle in place of antagonist. For each antagonist, the IC50 value (the concentration of compound needed to inhibit 50% of the agonistic response) is determined and may be normalized using the obtained IC50 value of a on-plate reference compound (normalized values in Table 1 are indicated by an asterisk *). Optimized conditions were achieved by adjustment of pipetting speed and cell splitting regime. The calculated IC50 values of the compounds may fluctuate depending on the daily cellular assay performance. Fluctuations of this kind are known to those skilled in the art.

human orexin-2 receptor = biological target: T2, human orexin-2 receptor (Homo sapiens, UniProt O43614); test: FLIPR calcium assay of orexin receptor antagonistic activity, CHO cells expressing human orexin-2 receptor; format: cell-based; settings: read-out: OX2 IC50
T2 construct: expressed in transfected cells; host or cells: Chinese hamster ovary (CHO) cells
T2 sequence (O43614 1-444): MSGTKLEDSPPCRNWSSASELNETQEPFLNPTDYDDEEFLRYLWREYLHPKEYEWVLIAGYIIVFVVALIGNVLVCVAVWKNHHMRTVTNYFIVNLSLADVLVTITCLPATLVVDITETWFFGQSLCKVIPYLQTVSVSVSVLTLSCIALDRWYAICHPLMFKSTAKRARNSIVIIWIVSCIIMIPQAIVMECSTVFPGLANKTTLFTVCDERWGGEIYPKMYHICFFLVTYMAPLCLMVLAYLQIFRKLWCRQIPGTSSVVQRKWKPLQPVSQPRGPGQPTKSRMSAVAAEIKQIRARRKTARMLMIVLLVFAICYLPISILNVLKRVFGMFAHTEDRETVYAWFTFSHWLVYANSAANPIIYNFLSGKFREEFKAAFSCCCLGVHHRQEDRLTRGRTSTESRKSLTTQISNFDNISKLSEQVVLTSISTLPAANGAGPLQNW
Procedure: as §1, §2, §3, §4, §5

[1] = 3 nM orexin-A as agonist, not normalized, *2/*3 = geometric mean of n = 2/3 values

| Compound | IC50 (human orexin-1 receptor) | IC50 (human orexin-2 receptor; [1]) | IC50 (human orexin-2 receptor) |
| --- | --- | --- | --- |
| Cc1cccc(-c2sc(C)nc2C(=O)N2CCSC2CNC(=O)c2ccn3ccsc23)c1 (racemic) [Example 4, rac-Pyrrolo[2,1-b]thiazole-7-carboxylic acid [3-(2-methyl-5-m-tolyl-thiazole-4-carbonyl)-thiazolidin-2-ylmethyl]-amide] | 2 nM | 2 nM | – |
| Cc1cccc(-c2sc(C)nc2C(=O)N2CCSC2CNC(=O)c2ccc(C(F)(F)F)c3oc(C)cc23)c1 (racemic) [Example 11, rac-2-Methyl-7-trifluoromethyl-benzofuran-4-carboxylic acid [3-(2-methyl-5-m-tolyl-thiazole-4-carbonyl)-thiazolidin-2-ylmethyl]-amide] | 17 nM | 63 nM | – |
| Cc1cccc(-c2sc(C)nc2C(=O)N2CCSC2CNC(=O)c2cccc3ocnc23)c1 (racemic) [Example 17, rac-Benzooxazole-4-carboxylic acid [3-(2-methyl-5-m-tolyl-thiazole-4-carbonyl)thiazolidin-2-ylmethyl]-amide] | 4 nM | 6 nM | – |
| Cc1nc(-c2cccc(Cl)c2)c(C(=O)N2CCSC2CNC(=O)c2cccc3c2CCO3)s1 (racemic) [Example 29, rac-2,3-Dihydro-benzofuran-4-carboxylic acid {3-[4-(3-chloro-phenyl)-2-methyl-thiazole-5-carbonyl]-thiazolidin-2-ylmethyl}-amide] | 3 nM | 7 nM | – |
| COc1cccc(-c2nc(C)sc2C(=O)N2CCSC2CNC(=O)c2cccc3c2CCO3)c1 (racemic) [Example 32, rac-2,3-Dihydro-benzofuran-4-carboxylic acid {3-[4-(3-methoxy-phenyl)-2-methyl-thiazole-5-carbonyl]-thiazolidin-2-ylmethyl}-amide] | 4 nM | 5 nM | – |
| Cc1nc(-c2ccc(F)cc2)c(C(=O)N2CCSC2CNC(=O)c2nn(C)c3ccccc23)s1 (racemic) [Example 39, rac-1-Methyl-1H-indazole-3-carboxylic acid {3-[4-(4-fluoro-phenyl)-2-methyl-thiazole-5-carbonyl]-thiazolidin-2-ylmethyl}-amide] | 8 nM | 86 nM | – |
| Cc1ccc(-c2nc(C)sc2C(=O)N2CCSC2CNC(=O)c2cccc3c2OCCO3)cc1 (racemic) [Example 42, rac-2,3-Dihydro-benzo[1,4]dioxine-5-carboxylic acid [3-(2-methyl-4-p-tolyl-thiazole-5-carbonyl)-thiazolidin-2-ylmethyl]-amide] | 10 nM | 31 nM | – |
| Cc1nc(-c2cccc(C(F)(F)F)c2)c(C(=O)N2CCSC2CNC(=O)c2nn(C)c3ccccc23)s1 (racemic) [Example 50, rac-1-Methyl-1H-indazole-3-carboxylic acid {3-[2-methyl-4-(3-trifluoromethyl-phenyl)-thiazole-5-carbonyl]-thiazolidin-2-ylmethyl}-amide] | 7 nM | 43 nM | – |
| Cc1nc(C(=O)N2CCSC2CNC(=O)c2cccc3c2OCCO3)c(-c2ccccc2)s1 (racemic) [Example 57, rac-2,3-Dihydro-benzo[1,4]dioxine-5-carboxylic acid [3-(2-methyl-5-phenyl-thiazole-4-carbonyl)-thiazolidin-2-ylmethyl]-amide] | 4 nM | 10 nM | – |
| Cc1nc(C(=O)N2CCSC2CNC(=O)c2nn(C)c3ccccc23)c(-c2ccc(C(F)(F)F)cc2)s1 (racemic) [Example 61, rac-1-Methyl-1H-indazole-3-carboxylic acid {3-[2-methyl-5-(4-trifluoromethyl-phenyl)-thiazole-4-carbonyl]-thiazolidin-2-ylmethyl}-amide] | 16 nM | 28 nM | – |
| Cc1ccc(-c2ccccc2C(=O)N2CCSC2CNC(=O)c2cccc3ncsc23)cc1C (racemic) [Example 72, rac-Benzothiazole-7-carboxylic acid [3-(3′,4′-dimethyl-biphenyl-2-carbonyl)-thiazolidin-2-ylmethyl]-amide] | 12 nM | 10 nM | – |
| Cc1nc(C(=O)N2CCSC2CNC(=O)c2cccc3c2CCO3)c(-c2ccc(F)cc2)s1 (racemic) [Example 77, rac-2,3-Dihydro-benzofuran-4-carboxylic acid {3-[5-(4-fluoro-phenyl)-2-methyl-thiazole-4-carbonyl]-thiazolidin-2-ylmethyl}-amide] | 4 nM | 4 nM | – |
| Cc1cccc(-c2oc(C)nc2C(=O)N2CCSC2CNC(=O)c2cccc3ncsc23)c1 (racemic) [Example 83, rac-Benzothiazole-7-carboxylic acid [3-(2-methyl-5-m-tolyl-oxazole-4-carbonyl)-thiazolidin-2-ylmethyl]-amide] | 14 nM | 11 nM | – |
| Cc1nc(C(=O)N2CCSC2CNC(=O)c2cccc3ncsc23)c(-c2ccccc2)o1 (racemic) [Example 88, rac-Benzothiazole-7-carboxylic acid [3-(2-methyl-5-phenyl-oxazole-4-carbonyl)-thiazolidin-2-ylmethyl]-amide] | 4 nM | 7 nM | – |
| Cc1nc(C(=O)N2CCSC2CNC(=O)c2cccc3c2OCCO3)c(-c2cccc(F)c2)o1 (racemic) [Example 95, rac-2,3-Dihydro-benzo[1,4]dioxine-5-carboxylic acid {3-[5-(3-fluoro-phenyl)-2-methyl-oxazole-4-carbonyl]-thiazolidin-2-ylmethyl}-amide] | 23 nM | 68 nM | – |
| COc1cccc(-c2oc(C)nc2C(=O)N2CCSC2CNC(=O)c2cccc3ncsc23)c1 (racemic) [Example 104, rac-Benzothiazole-7-carboxylic acid {3-[5-(3-methoxy-phenyl)-2-methyl-oxazole-4-carbonyl]-thiazolidin-2-ylmethyl}-amide] | 7 nM | 8 nM | – |
| Cc1cccc(-c2sccc2C(=O)N2CCSC2CNC(=O)c2cccc3ncsc23)c1 (racemic) [Example 109, rac-Benzothiazole-7-carboxylic acid [3-(2-m-tolyl-thiophene-3-carbonyl)-thiazolidin-2-ylmethyl]-amide] | 7 nM | 10 nM | – |
| O=C(NCC1SCCN1C(=O)c1nc(C2CC2)sc1-c1cccc(F)c1)c1cccc2c1CCO2 (racemic) [Example 116, rac-2,3-Dihydro-benzofuran-4-carboxylic acid {3-[2-cyclopropyl-5-(3-fluoro-phenyl)-thiazole-4-carbonyl]-thiazolidin-2-ylmethyl}-amide] | 2 nM | 5 nM | – |
| COc1cccc(-c2nccnc2C(=O)N2CCSC2CNC(=O)c2cccc3ncsc23)c1 (racemic) [Example 196, rac-Benzothiazole-7-carboxylic acid {3-[3-(3-methoxy-phenyl)-pyrazine-2-carbonyl]-thiazolidin-2-ylmethyl}-amide] | – | – | 3 nM |
